{"source": "patent US20050107405A1", "about": "“Pharmaceutical composition for alleviating pain or spasticity in a patient suffering from spinal cord injury” (priority 2003, published 2005)", "key": {"[1]": {"system": "pain or spasticity in patients suffering from spinal cord injury", "test": "Administration of sildenafil citrate (50 mg VIAGRA tablet) to three male patients with spinal cord injury", "assay_type": "in vivo, human", "conditions": "for Effect of alleviating pain or spasticity caused by spinal cord injury (in words): patients with spinal cord injury (Patients 1 to 3), comparison with customary analgesics", "procedure": "Sildenafil citrate was administered to three male patients of ages 30-73, who have sexual dysfunction and somatic pain. Patient 1: 7th thoracic vertebrae injury and complete paraplegia. […] Erectile dysfunction. Every day behavior: Wheel chair. Patient 2: 12th thoracic vertebrae injury and complete paraplegia. […] Erectile dysfunction. Every day behavior: Wheel chair. Patient 3: 6th cervical vertebrae injury and incomplete quadriplegia. They were constantly suffering from limb pain and spasticity. Erectile dysfunction. Every day behavior: Wheel chair. Patients 1 to 3 were dosed with a 50 mg tablet of […]® in the unit dosage form when feeling pain or spasticity."}, "peripheral nociception": {"system": "peripheral nociception", "conditions": "potentiated by sodium nitroprasside and L-arginine; cited from earlier work"}, "nociception": {"system": "nociception", "conditions": "alone and with diclofenac; cited from earlier work"}, "[2]": {"system": "morphine-induced antinociception", "conditions": "with morphine; cited from earlier work"}, "[3]": {"conditions": "Patient 1, Th7 complete paraplegia, 50 mg tablet"}, "[4]": {"conditions": "Patient 1, Th7 complete paraplegia, 50 mg tablet, monocitrate"}, "[5]": {"conditions": "Patient 2, Th12 complete paraplegia, 50 mg tablet, monocitrate"}, "[6]": {"conditions": "Patient 3, C6 incomplete quadriplegia, 50 mg tablet, monocitrate"}}, "note": "Entries after “also recorded” stand apart in the source; their conditions may differ."}
{"molecule": "O=C(O)Cc1ccccc1Nc1c(Cl)cccc1Cl", "note": "[diclofevac sodium]", "values": [{"measurement": "Effect of alleviating pain or spasticity caused by spinal cord injury (in words)", "setting": "[1]", "result": "no effects of alleviating pain or spasticity could be found"}, {"measurement": "Effect of alleviating pain or spasticity caused by spinal cord injury (in words)", "setting": "[1]; listed as Voltaren", "result": "does not have any analgesic effects"}]}
{"molecule": "CC(C(=O)O)c1ccc(CC2CCCC2=O)cc1", "note": "(stereo not shown) [loxoprofen sodium]", "values": [{"measurement": "Effect of alleviating pain or spasticity caused by spinal cord injury (in words)", "setting": "[1]", "result": "no effects of alleviating pain or spasticity could be found"}, {"measurement": "Effect of alleviating pain or spasticity caused by spinal cord injury (in words)", "setting": "[1]; listed as Loxonin", "result": "does not have any analgesic effects"}]}
{"molecule": "CCCc1nn(C)c2c(=O)[nH]c(-c3cc(S(=O)(=O)N4CCN(C)CC4)ccc3OCC)nc12.O=C(O)CC(O)(CC(=O)O)C(=O)O", "note": "[sildenafil citrate, 1-[[3-(6,7-dihydro-1-methyl-7-oxo-3-propyl-1H-pyrazolo[4,3-d]pyrimidin-5-yl)-4-ethoxyphenyl]sulfonyl]-4-methylpiperazine monocitrate]", "values": [{"measurement": "Emerging Time of Effect After Administration", "setting": "[1]; [3]", "result": 30, "unit": "min"}, {"measurement": "Time until side effect (light heat sensation) disappeared", "setting": "[1]; [3]", "result": "two to three"}, {"measurement": "Duration of Effects", "setting": "[1]; [4]", "result": "around half; also recorded: half day"}, {"measurement": "Improvement of Erectile Dysfunction", "setting": "[1]; [4]", "result": "improved and Yes"}, {"measurement": "Side Effects", "setting": "[1]; [4]", "result": "Light heat sensation"}, {"measurement": "Effects of alleviating pain or spasticity", "setting": "[1]; Patient 2, Th12 complete paraplegia, 50 mg tablet", "result": "by about 30%"}, {"measurement": "Duration of Effects", "setting": "[1]; [5]", "result": "around one; also recorded: about one day"}, {"measurement": "Emerging Time of Effect After Administration", "setting": "[1]; [5]", "result": "around one; also recorded: one hour"}, {"measurement": "Improvement of Erectile Dysfunction", "setting": "[1]; [5]", "result": "not improved and No"}, {"measurement": "Side Effects", "setting": "[1]; [5]", "result": "No side effect was observed and No"}, {"measurement": "Duration of Effects", "setting": "[1]; [6]", "result": "5 to 6", "unit": "h"}, {"measurement": "Improvement of Erectile Dysfunction", "setting": "[1]; [6]", "result": "improved and No"}, {"measurement": "Side Effects", "setting": "[1]; [6]", "result": "No side effect was observed and No"}, {"measurement": "Effect of alleviating pain or spasticity caused by spinal cord injury (in words)", "setting": "[1]", "result": "significantly alleviates the pain or spasticity"}, {"measurement": "Alleviation of the pain or spasticity", "setting": "[1]; summary over Patients 1 to 3, 50 mg", "result": "20 to 50", "unit": "%"}]}
{"molecule": "CCCc1nn(C)c2c(=O)[nH]c(-c3cc(S(=O)(=O)N4CCN(C)CC4)ccc3OCC)nc12", "note": "[sildenafil, 5-[2-ethoxy-5-(4-methyl-1-piperazinylsulphonyl)phenyl]-1-methyl-3-n-propyl-1,6-dihydro-7H-pyrazolo[4,3-d]pyrimidin-7-one]", "values": [{"measurement": "Antinociception", "setting": "peripheral nociception", "result": "induces antinociception"}, {"measurement": "Antinociceptive activity", "setting": "nociception", "result": "produces antinociceptive activity, and increases that of diclofenac"}, {"measurement": "Effect on morphine-induced antinociception", "setting": "[2]", "result": "significantly increases the morphine-induced antinociception"}]}
